Results reported in ChEMBL document CHEMBL1268875, “Isoflavone derivatives inhibit NF-κB-dependent transcriptional activity” (Bioorg Med Chem Lett, 2010).
Activity calls are given as the source filed them. The rule behind the calls is not given here.

These molecules were tested on HCT-116 (assay: Inhibition of TNF-alpha-induced Nuclear factor-kappa-B-mediated CIAP2 expression in human HCT116 cells pretreated for 30 mins before stimulation with TNFalpha for 15 mins by RT-PCR).
Format: cell-based
In the case of COc1cc(OC)c2c(=O)c(-c3ccc(OC)c(OC)c3)coc2c1, the inhibition is reported as “Active”.

What follows are molecules tested on HCT-116 (assay: Inhibition of TNF-alpha-induced Nuclear factor-kappa-B-mediated XIAP expression in human HCT116 cells pretreated for 30 mins before stimulation with TNFalpha for 15 mins by RT-PCR).
Format: cell-based
In the case of COc1cc(OC)c2c(=O)c(-c3ccc(OC)c(OC)c3)coc2c1, the inhibition is reported as “Active”.

What follows are molecules tested on HCT-116 (assay: Inhibition of TNF-alpha-induced Nuclear factor-kappa-B dependent transcriptional activity in human HCT116 cells assessed normalized inhibitory ratio of at 10 uM for 12 hrs by NF-kappaB cis-acting luciferase reporter gene assay relative to untreated control).
Format: cell-based
COc1cc(OC)c2c(=O)c(-c3cccc(Cl)c3)coc2c1 showed a Ratio of 0.63. In the case of COc1ccc2c(=O)c(-c3ccc(OC)c(OC)c3)coc2c1, the Ratio is reported as 0.45. COc1cc2occ(-c3ccccc3Cl)c(=O)c2cc1Cl gave a Ratio of 0.54. COc1cc(C)c2c(=O)c(-c3ccccc3)coc2c1 showed a Ratio of 0.67. For COc1ccc2c(=O)c(-c3ccc(Cl)cc3)coc2c1C, the Ratio was 0.63. COc1ccc(-c2coc3cc(OC)c(Cl)cc3c2=O)cc1O gave a Ratio of 0.54. Molecule COc1cc(OC)c2c(=O)c(-c3ccc(Br)cc3)coc2c1 has a Ratio of 0.25. Molecule COc1ccc(-c2coc3cc(OC)c(OC)cc3c2=O)cc1OC has a Ratio of 0.4. With COc1ccc(-c2coc3c(OC)c(OC)ccc3c2=O)cc1 the Ratio was 0.95. With O=c1c(-c2ccc(O)cc2)coc2c(O)c(O)ccc12 the Ratio was 1.22. With COc1cc(OC)c2c(=O)c(-c3ccc(OC)c(OC)c3)coc2c1 the Ratio was 0.19. Work on COc1ccc(-c2coc3cc(O)ccc3c2=O)cc1OC yielded a Ratio of 2.53. With Cc1cc2occ(-c3ccc(Cl)cc3Cl)c(=O)c2cc1Cl the Ratio was 0.27. For COc1cc(O)c2c(=O)c(-c3ccc(O)cc3)coc2c1, the Ratio was 0.34. Work on Cc1c(O)ccc2c(=O)c(-c3ccc(Cl)cc3)coc12 yielded a Ratio of 1.04. In the case of COc1ccc(-c2coc3cc(O)c(OC)cc3c2=O)cc1, the Ratio is reported as 2.37. Cc1cc2occ(-c3ccccc3)c(=O)c2cc1Cl showed a Ratio of 0.32. With COc1ccc2c(=O)c(-c3ccccc3)coc2c1C the Ratio was 0.23. Work on Cc1c(O)ccc2c(=O)c(-c3ccccc3)coc12 yielded a Ratio of 0.45. For COc1ccc2c(=O)c(-c3ccccc3)coc2c1, the Ratio was 0.36. In the case of COc1cc(OC)c2c(=O)c(-c3ccccc3Cl)coc2c1, the Ratio is reported as 0.54. For COc1ccc(-c2coc3c(C)c(OC)ccc3c2=O)cc1, the Ratio was 0.62. In the case of COc1cc(OC)c2c(=O)c(-c3ccc(Cl)cc3)coc2c1, the Ratio is reported as 0.61.

The molecules below were run on HCT-116 (assay: Inhibition of TNF-alpha-induced nuclear translocation of Nuclear factor-kappa-B in human HCT116 cells pretreated for 30 mins before stimulation with TNFalpha for 30 mins by Western blot).
Format: cell-based
With COc1cc(OC)c2c(=O)c(-c3ccc(OC)c(OC)c3)coc2c1 the inhibition was “Active”.

What follows are molecules tested on HCT-116 (assay: Inhibition of TNF-alpha-induced Nuclear factor-kappa-B-mediated CXCL1 expression in human HCT116 cells pretreated for 30 mins before stimulation with TNFalpha for 15 mins by RT-PCR).
Format: cell-based
In the case of COc1cc(OC)c2c(=O)c(-c3ccc(OC)c(OC)c3)coc2c1, the inhibition is reported as “Active”.
